Entries after “also recorded” stand apart in the source; their conditions may differ. Structures can show the parent of a compound that is named as a salt. Where two headings read alike, the source gives them in different places.
Legend:
[1] = tested on: Compound 2616-induced Tactile Allodynia; assay: Compound 2616-induced Tactile Allodynia in naive rats, effect of dPQR; format: in vivo, rat; settings: 10 mg/kg, i.p., 75 min post-injection, vs vehicle; Hydrochloride
Procedure: To confirm that the pronociceptive actions of Compound 2616 were mediated via NPFF1 receptors we performed a pharmacological experiment where we administered dPQR (Dansyl-Pro-Gln-Arg, a reported NPFF antagonist, custom synthesized by Phoenix Pharmaceuticals) to rats treated with Compound 2616. Baseline paw withdrawal thresholds were obtained in naive rats. Following testing, the rats received either vehicle or Compound 2616 (10 mg/kg, i.p.). […] Half of the rats that received Compound 2616 were then injected with either vehicle or dPQR (30 mg/kg, i.p.).

Hot Plate Test = assay: 52° C. hot plate test after systemic administration; format: in vivo, rat; settings: rats, 10 mg/kg i.p., vs vehicle
Procedure: Rats were injected with either vehicle or 10 mg/kg Compound 2616 (i.p.) and then assessed for possible changes in sensitivity to a noxious thermal stimulus using the 52° C. hot plate test.

NPFF1 = NPFF1 (Homo sapiens, UniProt Q9GZQ6); assay: cAMP assay in transiently transfected HEK-T cells, NPFF1; format: cell-based; design: expressed in transfected cells; settings: for Emax: HEK-T cell, read-out: NPFF1 % Efficacy Mean; for EC50: read-out: NPFF1 pEC50 Mean (converted)
Chain of NPFF1 (Q9GZQ6 whole entry, species assumed): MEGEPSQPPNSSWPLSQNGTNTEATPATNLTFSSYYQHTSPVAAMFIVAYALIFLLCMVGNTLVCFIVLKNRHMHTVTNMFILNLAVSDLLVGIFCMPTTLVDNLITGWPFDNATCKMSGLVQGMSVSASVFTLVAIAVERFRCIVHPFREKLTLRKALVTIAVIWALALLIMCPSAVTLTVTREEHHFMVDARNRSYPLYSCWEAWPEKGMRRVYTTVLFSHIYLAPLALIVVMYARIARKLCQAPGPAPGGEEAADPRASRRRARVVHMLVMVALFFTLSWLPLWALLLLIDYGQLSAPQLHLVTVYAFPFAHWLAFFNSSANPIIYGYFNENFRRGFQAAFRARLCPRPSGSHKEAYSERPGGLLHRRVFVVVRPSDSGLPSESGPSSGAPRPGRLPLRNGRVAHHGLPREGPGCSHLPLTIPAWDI
Text: An assay was established for measuring cAMP in transiently transfected cells that takes advantage of the fact that most cells that are transfected with one gene, can be simultaneously transfected with other genes. Thus, the NPFF1 and NPFF2 receptors were transfected along with a Gs-coupled receptor (EP2) at a ratio of 5:1. […] Improvement was also detected in the sensitivity of the assay in some cases when cells are co-transfected with AC5 at ½-⅕ of the amount of DNA of the Gi-coupled receptor studied.
This set up was routinely used for the transfection of HEK-T cells with NPFF1 and NPFF2 receptors. After 48 hours the cAMP assay was set up using DiscoveRx assay protocol with transfected cells in suspension in the presence of varying concentrations of the NPFF ligands and 300 nM of […] in white bottom plates. Cells were incubated for 15 minutes at 37° C. At the end of incubation, cells were lysed and the remainder of the assay performed as per DiscoveRx protocol.
Cells were incubated for another 15 minutes at 37° C. following which the cells were lysed and processed as per kit protocol.

[2] = tested on: 52° C. Water Tail Flick Test; assay: 52° C. Water Tail Flick Test, intrathecal administration; format: in vivo, rat; settings: rats, morphine 3, 10, 30 μg, NPFF 100 μg, 1045 11.6 or 115.5 μg, 1DME 5.6, 55.6 or 556.0 μg
Procedure: Rats were implanted with chronically indwelling intrathecal catheters (PE-10; 7.5 cm) allowing for the delivery of compounds to the lumbar spinal cord. As a positive control, rats were treated with various doses of morphine (3, 10 and 30 μg).
Rats were implanted with chronically indwelling intrathecal catheters (PE-10; 7.5 cm) allowing for the delivery of compounds to the lumbar spinal cord.
Rats were implanted with chronically indwelling intrathecal catheters (PE-10; 7.5 cm) allowing for the delivery of compounds to the lumbar spinal cord. In order to rule out the possibility that the lack of antinociception produced by NPFF was due to the degradation of the peptide we administered 1DME (a stable NPFF analog).

[3] = tested on: Carrageenan-induced Thermal Hyperalgesia; assay: Carrageenan-induced Thermal Hyperalgesia (hot plate); format: in vivo, rat; settings: for hot plate latencies in vehicle-treated (no carrageenan) rats: 10 mg/kg; for calculated A50, reversal of thermal hyperalgesia: 95% CI; for reversal of carrageenan-induced thermal hyperalgesia: rats, 1, 3 and 10 mg/kg, hot plate
Procedure: Naive male Sprague-Dawley rats (175-200 g) were assessed for their responsiveness to a noxious thermal stimulus. Response latencies were measured using the hot plate test. Rats were placed in a plexiglass enclosure on a thermostatically controlled metal plate maintained at 52° C. […] Following testing, an animal model of acute inflammatory pain was created by injecting 100 μl of 2% λ-carrageenan ion to a hind paw. Three hours after carrageenan injection, hot plate latencies were again obtained. A significant reduction in the hot plate latency was interpreted as the presence of thermal hyperalgesia. Rats were injected with compound or vehicle and then tested at various time-points following drug administration. Data were converted to % Maximum Possible Effect (% MPE) by the formula, % MPE=((test-post-inflammatory)/(naive-post-inflammatory))*100, where the test score is the hot plate latency obtained after compound administration, the post-inflammatory score is the average response obtained 3 hr post-carrageenan, and the naive score is the average response obtained prior to manipulation. Additionally, paw thickness was measured (with a micrometer) following testing in order to quantify edema. Although none of the compounds tested reversed carrageenan-induced edema formation (data not shown), these compounds produced a dose-related reversal of carrageenan-induced thermal hyperalgesia.
Rats were injected (i.paw.) with 100 μl of 2% carrageenan or vehicle (dH2O) in order to produce a state of acute inflammatory pain. […] Rats were then treated with various doses of Compound 1045 (1, 3 and 10 mg/kg, i.p.) and hot plate latencies were tested across a period of 3 hours.
Rats were injected (i.paw.) with 100 μl of 2% carrageenan or vehicle (dH2O) in order to produce a state of acute inflammatory pain.
Rats were injected (i.paw.) with 100 μl of 2% carrageenan or vehicle (dH2O) in order to produce a state of acute inflammatory pain. […] Rats were then treated with various doses of Compound 3099 (1, 3 and 10 mg/kg, i.p.) and hot plate latencies were tested across a period of 3 hours.

[4] = tested on: formalin-induced flinching; assay: Formalin Flinching; format: in vivo, rat; settings: rats, 10 mg/kg i.p. 15 min prior to formalin
Procedure: Naive male Sprague-Dawley rats (175-200 g) were injected with a test compound followed by an injection of 50 μl of a 5.0% formalin solution into the dorsal surface of a hind paw and then placed in individual plastic cages for observation. The number of nociceptive responses (i.e., paw flinches/licks/bites) was counted for a period of 60 min following formalin injection. […] Compounds were administered 15 min prior to formalin injection. The results are depicted in FIG. 4.
(§1) A model of tonic pain was created in rats by administering an injection of 5.0% formalin solution (50 μl) into the dorsal surface of a hind paw and then placing the rat in an individual plastic cage for observation. Paw flinches/licks/bites are counted for a period of 60 min. Rats received either vehicle or Compound 3099 (10 mg/kg, i.p.) 15 min prior to the formalin injection. […] This finding is consistent with our previous data.
as §1, with “min.” for “min. Rats received either vehicle or Compound 3099 (10 mg/kg, i.p.) 15 min prior to the formalin injection.”

[5] = cAMP data, Table 2, HEK-T cells

Structure (SMILES)	paw withdrawal thresholds / tactile sensitivity of naive rats [1]	hot plate latency (thermal hyperalgesia) (Hot Plate Test)	Emax (NPFF1) [%]	EC50 (NPFF1; [5]) [µM]	antinociception in 52° C. water tail flick test [2]	hot plate latencies in vehicle-treated (no carrageenan) rats [3]	maximum efficacy, reversal of thermal hyperalgesia ([3]; carrageenan-treated rats, i.p.) [%]	calculated A50, reversal of thermal hyperalgesia ([3]; carrageenan-treated rats, i.p.)	reversal of carrageenan-induced thermal hyperalgesia ([3]; i.p.)	carrageenan-induced edema formation in the hind paw ([3]; rats, paw thickness)	formalin-induced flinching, phase I ([4]; 0-10 min post-formalin)	inhibition of formalin-induced flinching, phase II ([4]; 15-60 min post-formalin) [% inhibition]	time of peak effect after administration ([3]; carrageenan-treated rats, i.p.) [min]	Emax (NPFF1; [5]) [%]
NC(N)=NN=Cc1ccc(-c2ccccc2C(F)(F)F)o1 (racemic) [Compound 2616, 1-[(5-(2-(Trifluoromethyl)phenyl)-furan-2-yl)-methyleneamino]guanidine Hydrochloride]	markedly decreased; also recorded: resulted in an increased sensitivity to innocuous tactile stimulation	produced a significant reduction in the hot plate latency	93	1.26										
NC(N)=N/N=C/c1ccc(Cl)c(Cl)c1 [Compound 1045, 1-(3,4-Dichlorobenzylideneamino)guanidine Hydrochloride]					failed to elicit antinociception	did not significantly alter sensitivity to noxious thermal stimulation	57.6	7.8 mg/kg	dose-related reversal of thermal hyperalgesia	did not significantly alter edema formation				
Cl.N=C(N)N/N=C/c1ccc(Br)c(Br)c1 [Compound 3093, 1-(3,4-Dibromobenzylideneamino)guanidine Hydrochloride]				15.8		did not significantly alter the hot plate latencies		1.6 mg	dose-related reversal of thermal hyperalgesia		inactive	~62.1	30 to 60	23

— patent US20050136444A1 (priority 2003, published 2005)
